Reference: article PMC8533299, “Synthesis, In Silico Study, and Anti-Cancer Activity of Thiosemicarbazone Derivatives” (Biomedicines, 2021)
Converted amounts (≈) assume the structure as drawn. “And” between values parts separate entries of the source, which are not always exact repeats. Equal values may be shown once.

Legend:
[1] = system: MCF-7 (Human breast cancer); assay: MTT test on MCF-7 cells; format: cell-based; conditions: MCF7, till 48 h
Protocol: (§1) The in vitro anticancer activities of the synthesized compounds were conducted using different cancerous and non-cancerous cell lines viz B16-F0 (Mouse melanoma), mouse Ehrlich Ascites Carcinoma (EAC), MCF-7 (Human breast cancer), MCF-10A (Human breast epithelial cells), and NIH/3T3 (Mouse fibroblast cells). All cell lines were procured from the National Centre for Cell Science, Pune, India. The procured cells were cultured in a six-well culture plate with Dulbecco’s Modified Eagle’s Medium (DMEM) supplemented with 10% fetal bovine serum in a humid CO2 incubator with 5% carbon dioxide at 37 °C.
(§2) The anti-cancer effect and cytotoxicity of both 3-MBTSc and 4-NBTSc compounds were evaluated against different cancerous (MCF-7, EAC, B16-F0 cells) and noncancerous cells (MCF-10A, NIH-3T3 cells) using MTT test. In brief, the stock solutions of both the tested compounds were prepared by dissolving 1 mg of each compound in 1 mL of DMSO separately. Then, four different concentrations (5, 10, 12, and 20 µg/mL) of both compounds were used during the test along with the negative control. Also, 10 μg/mL of doxorubicin (Dox) was used as the positive control during the experiment. Both untreated and treated cells were incubated for next 24 and 48 h. Then, all the steps during the whole experiment were carried out by our earlier reported procedure. Later, the absorbance values were measured by an ELISA reader (Biorad, Hercules, CA, USA) at 570 nm wavelength using secondary wavelength as a reference at 620 nm and the percentages of cell viability was calculated using the following formula [59, 60, 61]. Cell viability (%)= Mean absorbance of treated cells/Mean absorbance of untreated cells × 100
Based on the cell viability data, the IC50 values of both compounds were calculated on different cancer cells by plotting their corresponding dose-responsive graphs.
The obtained data were statistically analyzed. The descriptive analysis was done and the IC50 values were calculated by fitting the sigmoidal dose responsive graph using GraphPad Prism (GraphPad Software, Inc., La Jolla, CA, USA). […]

[2] = Solubility of the obtained compound in solvents; format: physicochemical
Protocol: 3-Methoxybenzaldehyde thiosemicarbazone (C9H11N3OS; (2E)-2-(3-methoxybenzylidene) hydrazine carbothioamide) (3MBTSc) was prepared by using the previous procedure with slight modifications. It was prepared by refluxing a mixture of thiosemicarbazide ([…], 0.01 mmol) and 3-Methoxybenzaldehyde (2.67 mL, 0.01 mmol) in a mixture of 20 mL distilled water and 20 mL methanol as the solvent medium in the presence of glacial acetic acid (2–3 mL). The reaction mixture was refluxed for about 3–4 h. After cooling, the yellow crystalline solid separated was filtered, washed, and dried. The yield of the compound was 2.16 g and the obtained compound was insoluble in CHCl3, CCl4, CH3CN, H2O, ethanol, and methanol but it was soluble in DMSO and DHF/THF. The following characterization was carried out to confirm the synthesis of 3-Methoxybenzaldehyde thiosemicarbazone by FTIR (cm^−1): v(NH2) 3403s; 3287s; v(-NH) 3150s; 1599s v(C=N); v(C=S) 1246s, 836s, ^1H-NMR (DMSO-d^6, ppm): 11.40 (s, 1H); 8.19 (s, 2H); 6.95–7.44 (m, ar-H); 3.80 (s, 3H), and ^13C-NMR (DMSO-d^6, ppm): 178.9 (s, C=S), 55.76 (s, OCH3), 111-143 (m-Ph-C), 159.6 (s, C=N).
4-Nitrobenzaldehyde thiosemicarbazone ((2E)-2-(4-nitrobenzylidene) hydrazine carbothioamide) (4NBTSc) was synthesized using earlier reported methods with slight modifications. A mixture of 1.51 g (0.01 mmol) of 4-Nitrobenzaldehyde, and 0.914 g (0.01 mmol) thiosemicarbazide was stirred for 2 h using 15 mL of methanol and 15 mL of distilled water as a solvent medium. The resulting yellow solution was allowed to cool. Then, a yellow crystalline solid separated was filtered, washed with diethyl ether and dried. The yield of the compound was 2.30 g and the obtained compound was insoluble in CHCl3, CCl4, CH3CN, H2O, ethanol, and methanol but it was soluble in DMSO and DHF/THF. The following characterization was carried out to confirm the synthesis of 4-Nitrobenzaldehyde thiosemicarbazone by FTIR (cm^−1): v(NH2) 3499m; 3373s; v(-NH) 3197s; 1588s; 1343s (v(NO2); v(C=N); v(C=S) 1137s, 750s, ^1H-NMR (DMSO-d^6, ppm): 11.66 (s, 1H); 8.38 (s, 2H); 8.32–8.03 (m, ar-H), and ^13C-NMR (DMSO-d^6, ppm): 179 (s, C=S), 128-141 (m-Ph-C), 148.06(s, C=N), 124.23 (s, CH).

[3] = system: gene expression in MCF-7 human breast cancer cells; assay: RT-qPCR gene expression in MCF-7 cells; format: cell-based; conditions: for BCl2 Treated (RQ value) / BRCA1 Treated (RQ value) / BRCA2 Treated (RQ value) / Bax Treated (RQ value) / Caspase-3 Treated (RQ value) / Dmp1 Treated (RQ value) / ER Treated (RQ value) / Hdm2 Treated (RQ value) / Myc Treated (RQ value) / PKC Treated (RQ value) / PR Treated (RQ value) / PTEN Treated (RQ value) / RAS Treated (RQ value) / p19 Arf Treated (RQ value) / p21 Treated (RQ value) / p53 Treated (RQ value) / pRB Treated (RQ value): MCF-7 cells treated, GAPDH housekeeping gene
Protocol: Total mRNA was isolated and extracted by Trizol reagent as described in an earlier method. RevertAid First Strand cDNA synthesis kit (Thermo Fisher Scientific, Waltham, MA, USA) was used to synthesize cDNA in a total reaction volume of 20 μL containing oligo-dT primers, RiboLock RNase inhibitor, and reverse transcriptase. Gene-specific primers were used to amplify cDNAs in RT-qPCR machine (Applied Biosystems, Waltham, MA, USA).

[4] = system: MCF-10A (Human breast epithelial cells); assay: MTT cytotoxicity test on MCF-10A cells; format: cell-based; conditions: 48 h
Protocol: as §1, §2

[5] = MTT cytotoxicity test on MCF-10A cells; format: cell-based, Human; conditions: human, MCF-10A breast epithelial cells
Protocol: as §1, §2

[6] = MCF-7 cells, difference of RQ values

NC(=S)N[N-][CH+]c1ccc([N+](=O)[O-])cc1 [4-NBTSc, 4-Nitrobenzaldehyde thiosemicarbazone]
IC50 [1]: 7.102 ± 0.01 µg/mL (≈ 31.7 µM) | solubility in CHCl3, CCl4, CH3CN, H2O, ethanol, and methanol [2]: insoluble | solubility in DMSO and DHF/THF [2]: soluble | BCl2 Treated (RQ value) [3]: 3.11 ± 0.01 | BRCA1 Treated (RQ value) [3]: 2.86 ± 0.455 | BRCA2 Treated (RQ value) [3]: 4.13 ± 0.02 | Bax Treated (RQ value) [3]: 1.825 ± 0.025 | Caspase-3 Treated (RQ value) [3]: 1.85 ± 0.04 | Dmp1 Treated (RQ value) [3]: 2.19 ± 0.02 | ER Treated (RQ value) [3]: 2.14 ± 0.03 | Hdm2 Treated (RQ value) [3]: 3.92 ± 0.045 | Myc Treated (RQ value) [3]: 2.35 ± 0.025 | PKC Treated (RQ value) [3]: 6.09 ± 0.02 | PR Treated (RQ value) [3]: 1.15 ± 0.02 | PTEN Treated (RQ value) [3]: 5.09 ± 0.02 | RAS Treated (RQ value) [3]: 3.94 ± 0.02 | p19 Arf Treated (RQ value) [3]: 0.995 ± 0.025 | p21 Treated (RQ value) [3]: 4.12 ± 1.51 | p53 Treated (RQ value) [3]: 4.185 ± 0.025 | pRB Treated (RQ value) [3]: 3.81 ± 0.02 | BCl2 Fold Change (MCF 7 treated-MCF 7 untreated) [3, 6]: 1.02 fold | BRCA1 Fold Change (MCF 7 treated-MCF 7 untreated) [3, 6]: 1.06 fold | BRCA2 Fold Change (MCF 7 treated-MCF 7 untreated) [3, 6]: 2.19 fold | Bax Fold Change (MCF 7 treated-MCF 7 untreated) [3, 6]: 1.1 fold | Caspase-3 Fold Change (MCF 7 treated-MCF 7 untreated) [3, 6]: 1.25 fold | Dmp1 Fold Change (MCF 7 treated-MCF 7 untreated) [3, 6]: -0.3 fold | ER Fold Change (MCF 7 treated-MCF 7 untreated) [3, 6]: -2.7 fold | Hdm2 Fold Change (MCF 7 treated-MCF 7 untreated) [3, 6]: -3.32 fold | Myc Fold Change (MCF 7 treated-MCF 7 untreated) [3, 6]: -5.1 fold | PR Fold Change (MCF 7 treated-MCF 7 untreated) [3, 6]: -0.05 fold | PTEN Fold Change (MCF 7 treated-MCF 7 untreated) [3, 6]: 2.945 fold and 2.95 fold | p19 Arf Fold Change (MCF 7 treated-MCF 7 untreated) [3, 6]: -0.34 fold | p21 Fold Change (MCF 7 treated-MCF 7 untreated) [3, 6]: 1.93 fold | p53 Fold Change (MCF 7 treated-MCF 7 untreated) [3, 6]: 2.025 fold | pRB Fold Change (MCF 7 treated-MCF 7 untreated) [3, 6]: 2.21 fold | toxicity [4]: less than 20% | viability at 48 h [5]: > 80%

COc1cccc(C=NNC(N)=S)c1 [3-MBTSc, 3-Methoxybenzaldehyde thiosemicarbazone]
IC50 [1]: 2.821 ± 0.008 µg/mL (≈ 13.5 µM) | solubility in CHCl3, CCl4, CH3CN, H2O, ethanol, and methanol [2]: insoluble | solubility in DMSO and DHF/THF [2]: soluble | BCl2 Treated (RQ value) [3]: 2.375 ± 0.025 | BRCA1 Treated (RQ value) [3]: 7.13 ± 0.01 | BRCA2 Treated (RQ value) [3]: 1.235 ± 0.005 | Bax Treated (RQ value) [3]: 2.125 ± 0.025 | Caspase-3 Treated (RQ value) [3]: 2.13 ± 0.01 | Dmp1 Treated (RQ value) [3]: 2.1 ± 0.03 | ER Treated (RQ value) [3]: 3.15 ± 0.03 | Hdm2 Treated (RQ value) [3]: 5.26 ± 0.045 | Myc Treated (RQ value) [3]: 3.43 ± 0.015 | PKC Treated (RQ value) [3]: 5.455 ± 0.015 | PR Treated (RQ value) [3]: 1.23 ± 0.02 | PTEN Treated (RQ value) [3]: 3.78 ± 0.02 | RAS Treated (RQ value) [3]: 3.905 ± 0.035 | p19 Arf Treated (RQ value) [3]: 4.575 ± 0.055 | p21 Treated (RQ value) [3]: 3.125 ± 0.025 | p53 Treated (RQ value) [3]: 5.185 ± 0.015 | pRB Treated (RQ value) [3]: 3.11 ± 0.01 | BCl2 Fold Change (MCF 7 treated-MCF 7 untreated) [3, 6]: 0.285 fold | BRCA1 Fold Change (MCF 7 treated-MCF 7 untreated) [3, 6]: 5.33 fold | BRCA2 Fold Change (MCF 7 treated-MCF 7 untreated) [3, 6]: -0.7 fold | Bax Fold Change (MCF 7 treated-MCF 7 untreated) [3, 6]: 1.4 fold | Caspase-3 Fold Change (MCF 7 treated-MCF 7 untreated) [3, 6]: 1.53 fold | Hdm2 Fold Change (MCF 7 treated-MCF 7 untreated) [3, 6]: -1.98 fold | Myc Fold Change (MCF 7 treated-MCF 7 untreated) [3, 6]: -4.02 fold | PKC Fold Change (MCF 7 treated-MCF 7 untreated) [3, 6]: -7.64 fold | PR Fold Change (MCF 7 treated-MCF 7 untreated) [3, 6]: 0.035 fold | PTEN Fold Change (MCF 7 treated-MCF 7 untreated) [3, 6]: 1.635 fold | RAS Fold Change (MCF 7 treated-MCF 7 untreated) [3, 6]: −5.92 fold | p19 Arf Fold Change (MCF 7 treated-MCF 7 untreated) [3, 6]: 3.24 fold | p21 Fold Change (MCF 7 treated-MCF 7 untreated) [3, 6]: 0.935 fold | p53 Fold Change (MCF 7 treated-MCF 7 untreated) [3, 6]: 3.025 fold | pRB Fold Change (MCF 7 treated-MCF 7 untreated) [3, 6]: 1.51 fold | toxicity [4]: less than 20% | viability at 48 h [5]: > 80%
